Laboratory results as given in patent US11957687B2 (REGENERON PHARMACEUTICALS, INC., priority 2019, dated 2024).

Experiments:
Type in all cases: biochemical
HSD17B10 = HSD17B10 (Homo sapiens (Human), UniProt Q99714); test: HSD17B10 enzymatic blocking assay; conditions: 25 μM Estradiol, 500 μM NAD; read-out: Inhibition of HSD17B10 IC50
Procedure: To screen compounds of the disclosure for their ability to block HSD17B10 function, an enzymatic blocking assay was performed. For the assay, HSD17B10 activity was measured by detecting NADH formation from oxidation of Estradiol using a NADH Glo luminescence assay (Promega, #Cat. No. G9062). Compounds of the disclosure were evaluated in a dose titration assay where the compounds were titrated at 10-point dose curve using an Echo-555 liquid handling dispenser. HSD17B10 (Seq. ID NO: 5, expressed in mammalian cells) was added at a final concentration of 31.25 ng/well in a buffer containing 0.2M Tris-HCl, pH 7.5, into a low volume white 384-well assay plate. Compounds were incubated with the enzyme for 30 minutes at room temperature. The assay reaction was then initiated by addition of 25 μM Estradiol substrate (Sigma, catalog #E2758-250MG, CAS: 50-28-2) and 500 μM NAD co-factor, and the reaction mixture was incubated for 3 hours at room temperature. DMSO at a concentration of 0.5% was used as a negative control and a ‘no substrate’ control was used a positive control in the assay. Detection reagent was then added as per manufacturer's instructions, and the plate was subsequently incubated in the dark for 1 hour at room temperature, NADH generated was detected in the luminescence mode on the Envision Perkin Elmer plate reader. The IC50 values were determined using Dotmatics analysis software.

HSD17B13 = HSD17B13 (Homo sapiens (Human), UniProt Q7Z5P4); test: HSD17B13 enzymatic inhibition assay (150 nM or 50 nM HSD17B13); conditions: 50 nM HSD17B13; read-out: Inhibition of 50 nM of HSD17B13 IC50
HSD17B1 = HSD17B1 (Homo sapiens (Human), UniProt P14061); test: HSD17B1 enzymatic blocking assay; conditions: 25 μM Estradiol, 500 μM NAD; read-out: Inhibition of HSD17B1 IC50
Procedure, shortened: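 Activity followed as NADH formed on estradiol oxidation, read by NADH-Glo luminescence after 1 h detection in the dark at room temperature. Compounds preincubated with enzyme 30 min at room temperature; 0.5% DMSO and no-substrate controls. IC50 fitted from luminescence.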

HSD17B2 = HSD17B2 (Homo sapiens (Human), UniProt P37059); test: HSD17B2 enzymatic blocking assay; conditions: 1.8 μM Estradiol, 650 μM NAD; read-out: Inhibition of HSD17B2 IC50
Procedure, shortened: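 Mammalian-expressed enzyme at 2 ng/μL in 50 mM Tris-HCl pH 7.5 with detergents/BSA, preincubated 15 min at 20° C. with compound (10-point titration). Reaction with 1.8 μM estradiol and 650 μM NAD ran 45 min at 20° C.; NADH measured by NADH-Glo luminescence and IC50 derived.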

HSD17B4 = HSD17B4 (Homo sapiens (Human), UniProt P51659); test: HSD17B4 enzymatic blocking assay; conditions: 23.46 μM Estradiol, 1500 μM NAD; read-out: Inhibition of HSD17B4 IC50
Procedure: To screen compounds of the disclosure for their ability to block HSD17B4 function, an enzymatic blocking assay was performed. For the assay, HSD17B4 activity was measured by detecting NADH formation from oxidation of Estradiol using a NADH Glo luminescence assay (Promega, #Cat. No. G9062). Compounds of the disclosure were evaluated in a dose titration assay where the compounds were titrated at 10-point dose curve using an Echo-555 liquid handling dispenser. HSD17B4 (SEQ ID NO: 4, expressed in mammalian cells) was added at a final concentration of 2.5 ng/μL in a buffer containing 50 mM Tris-HCl, pH 7.5, Pluronic F-127 0.05%, Tween20 0.01%, BSA 0.01%, into a low volume white 384-well assay plate. Compounds were incubated with the enzyme for 15 min at 20° C. The assay reaction was then initiated by addition of 23.46 μM Estradiol substrate (Sigma, catalog #E2758-250MG, CAS: 50-28-2) and 1500 μM NAD co-factor, and the reaction mixture was incubated for 45 min at 20° C. DMSO at a concentration of 0.5% was used as a negative control and a ‘no substrate’ control was used a positive control in the assay. Detection reagent was then added as per manufacturer's instructions, and the plate was subsequently incubated in the dark for 1 hour at room temperature, NADH generated was detected in the luminescence mode on the Envision Perkin Elmer plate reader. The IC50 values were determined using Dotmatics analysis software.

Sequence of HSD17B2 (P37059 other isoform, or with tags, fused parts or gaps): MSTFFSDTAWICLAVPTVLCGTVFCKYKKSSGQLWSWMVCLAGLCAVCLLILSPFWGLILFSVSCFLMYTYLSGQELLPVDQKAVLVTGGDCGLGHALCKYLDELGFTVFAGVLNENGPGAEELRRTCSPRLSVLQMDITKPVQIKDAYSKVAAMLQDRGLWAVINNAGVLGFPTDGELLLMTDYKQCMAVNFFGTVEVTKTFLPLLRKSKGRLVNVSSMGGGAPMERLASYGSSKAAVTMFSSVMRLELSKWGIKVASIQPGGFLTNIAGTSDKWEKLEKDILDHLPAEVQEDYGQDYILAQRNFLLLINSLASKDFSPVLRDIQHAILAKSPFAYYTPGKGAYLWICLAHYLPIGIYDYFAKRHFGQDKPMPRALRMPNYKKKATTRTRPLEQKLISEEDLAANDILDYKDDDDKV
Sequence of HSD17B13 (Q7Z5P4 other isoform, or with tags, fused parts or gaps): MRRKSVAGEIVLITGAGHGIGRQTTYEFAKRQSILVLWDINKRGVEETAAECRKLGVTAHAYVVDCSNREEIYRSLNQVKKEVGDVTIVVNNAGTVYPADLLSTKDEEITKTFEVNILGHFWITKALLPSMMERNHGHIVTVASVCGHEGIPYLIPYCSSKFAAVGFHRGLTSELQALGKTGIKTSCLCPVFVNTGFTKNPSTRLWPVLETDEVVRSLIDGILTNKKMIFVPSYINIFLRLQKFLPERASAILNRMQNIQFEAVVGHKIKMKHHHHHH
Sequence of HSD17B4 (P51659 other isoform, or with tags, fused parts or gaps): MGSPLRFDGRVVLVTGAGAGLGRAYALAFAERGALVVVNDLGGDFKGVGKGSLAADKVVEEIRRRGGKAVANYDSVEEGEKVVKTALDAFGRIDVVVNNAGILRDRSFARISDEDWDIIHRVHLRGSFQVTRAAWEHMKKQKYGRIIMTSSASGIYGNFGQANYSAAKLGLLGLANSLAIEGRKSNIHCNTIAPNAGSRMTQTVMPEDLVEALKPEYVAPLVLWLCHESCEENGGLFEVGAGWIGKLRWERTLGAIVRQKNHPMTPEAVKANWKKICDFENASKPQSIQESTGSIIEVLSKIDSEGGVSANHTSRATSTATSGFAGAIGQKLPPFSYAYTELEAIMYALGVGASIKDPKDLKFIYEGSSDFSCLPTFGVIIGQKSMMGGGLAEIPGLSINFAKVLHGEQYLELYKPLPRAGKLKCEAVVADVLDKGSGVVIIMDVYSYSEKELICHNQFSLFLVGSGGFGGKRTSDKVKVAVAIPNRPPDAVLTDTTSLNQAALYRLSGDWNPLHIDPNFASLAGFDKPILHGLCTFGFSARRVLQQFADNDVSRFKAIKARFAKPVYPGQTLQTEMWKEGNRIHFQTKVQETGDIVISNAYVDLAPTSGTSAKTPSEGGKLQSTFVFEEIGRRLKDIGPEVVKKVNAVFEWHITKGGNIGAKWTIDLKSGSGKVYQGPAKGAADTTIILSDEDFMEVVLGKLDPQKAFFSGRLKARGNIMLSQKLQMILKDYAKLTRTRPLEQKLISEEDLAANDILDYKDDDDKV
Sequence of HSD17B1 (P14061 other isoform, or with tags, fused parts or gaps): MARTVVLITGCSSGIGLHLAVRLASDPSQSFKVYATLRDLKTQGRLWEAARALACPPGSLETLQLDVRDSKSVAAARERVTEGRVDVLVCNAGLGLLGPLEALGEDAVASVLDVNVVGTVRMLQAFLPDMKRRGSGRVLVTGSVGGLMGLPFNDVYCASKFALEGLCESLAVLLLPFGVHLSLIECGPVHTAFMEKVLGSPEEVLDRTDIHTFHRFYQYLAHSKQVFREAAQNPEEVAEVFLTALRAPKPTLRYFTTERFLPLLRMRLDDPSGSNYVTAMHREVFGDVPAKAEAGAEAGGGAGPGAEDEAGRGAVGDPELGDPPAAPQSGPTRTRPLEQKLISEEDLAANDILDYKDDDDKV
Sequence of HSD17B10 (Q99714 other isoform, or with tags, fused parts or gaps): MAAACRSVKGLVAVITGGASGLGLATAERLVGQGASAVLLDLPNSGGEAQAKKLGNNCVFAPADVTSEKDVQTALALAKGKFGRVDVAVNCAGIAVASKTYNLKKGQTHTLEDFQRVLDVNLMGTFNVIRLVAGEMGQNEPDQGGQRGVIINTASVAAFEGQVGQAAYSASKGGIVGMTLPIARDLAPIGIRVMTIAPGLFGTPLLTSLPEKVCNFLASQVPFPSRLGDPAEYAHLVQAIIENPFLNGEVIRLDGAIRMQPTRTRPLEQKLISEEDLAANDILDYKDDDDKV

Row | SMILES | IC50 (HSD17B10) [µM] | IC50 (HSD17B13) [µM] | IC50 (HSD17B1) [µM] | IC50 (HSD17B2) [µM] | IC50 (HSD17B4) [µM]
1 | O=C(NC1c2ccccc2Oc2cc(Cl)ccc21)c1ccc(C(F)(F)F)[nH]c1=O (stereo not shown) [Compound 15A, N-(3-chloro-9H-xanthen-9-yl)-2-oxo-6-(trifluoromethyl)-1,2-dihydropyridine-3-carboxamide] | > 30 | 0.16 | 3.9 | 6.33 | > 100
2 | Cc1ccc2c(c1)Oc1cccc(C)c1C2NC(=O)c1ccc(C(F)(F)F)[nH]c1=O (stereo not shown) [Compound 53, N-(1,6-dimethyl-9H-xanthen-9-yl)-2-oxo-6-(trifluoromethyl)-1,2-dihydropyridine-3-carboxamide] | > 30 | 0.31 | 3.69 | 10.7 | 47.1
3 | Cc1ccc2c(c1)Oc1ccccc1C2NC(=O)c1ccc(C(F)(F)F)[nH]c1=O (stereo not shown) [Compound 55, N-(3-methyl-9H-xanthen-9-yl)-2-oxo-6-(trifluoromethyl)-1,2-dihydropyridine-3-carboxamide] | > 30 | 0.18 | 4.65 | 9.15 | > 100
4 | O=C(NC(c1ccccc1)c1ccc2c(c1)CCCC2)c1ccc(C(F)(F)F)[nH]c1=O (stereo not shown) [Compound 80, N-(phenyl(5,6,7,8-tetrahydronaphthalen-2-yl)methyl)-2-oxo-6-(trifluoromethyl)-1,2-dihydropyridine-3-carboxamide] | > 30 | 0.36 | 3.65 | 8.91 | 48.7
5 | O=C(NC(c1ccccc1)c1ccc(-c2cccnc2)cc1)c1ccc(C(F)(F)F)[nH]c1=O (stereo not shown) [Compound 93, N-(phenyl(4-(pyridin-3-yl)phenyl)methyl)-2-oxo-6-(trifluoromethyl)-1,2-dihydropyridine-3-carboxamide] | > 30 | 0.6 | 15.6 | 10.7 | 66.2
6 | O=C(NC(c1ccccc1)c1ccc2c(c1)COC2)c1ccc(C(F)(F)F)[nH]c1=O (stereo not shown) [Compound 94, N-((1,3-dihydroisobenzofuran-5-yl)(phenyl)methyl)-2-oxo-6-(trifluoromethyl)-1,2-dihydropyridine-3-carboxamide] | > 30 |  | 11.3 | 18.8 | 96.6
7 | Cc1ccc(C(NC(=O)c2cc(C)c(C(F)(F)F)[nH]c2=O)c2ccc(C)cc2)cc1 [Compound 115, N-(di-p-tolylmethyl)-5-methyl-2-oxo-6-(trifluoromethyl)-1,2-dihydropyridine-3-carboxamide] | > 30 | 0.45 | 11.2 | 11 | > 100
8 | CCc1ccc2c(c1)Oc1ccccc1C2NC(=O)c1ccc(C(F)(F)F)[nH]c1=O (stereo not shown) [Compound 140, N-(3-ethyl-9H-xanthen-9-yl)-2-oxo-6-(trifluoromethyl)-1,2-dihydropyridine-3-carboxamide] | > 30 | 0.2 | 3.53 | 10.7 | 54.2
9 | O=C(NC1c2ccccc2Oc2cc(CC(F)(F)F)ccc21)c1ccc(C(F)(F)F)[nH]c1=O (stereo not shown) [Compound 141, 2-oxo-N-(3-(2,2,2-trifluoroethyl)-9H-xanthen-9-yl)-6-(trifluoromethyl)-1,2-dihydropyridine-3-carboxamide] | > 30 | 0.36 | 3.62 | 7.3 | 58.2
10 | Cc1ccc2c(c1)Oc1ccccc1C2NC(=O)c1c(C)cc(C(F)(F)F)[nH]c1=O (stereo not shown) [Compound 198, 4-methyl-N-(3-methyl-9H-xanthen-9-yl)-2-oxo-6-(trifluoromethyl)-1,2-dihydropyridine-3-carboxamide] | > 30 | 0.4 | > 30 | > 100 | > 100
